Source: publication PMC7529893, “Structural basis for substrate recognition and chemical inhibition of oncogenic MAGE ubiquitin ligases” (Nature Communications, 2020)

Target: T1, MAGE-A11:PCF11 interaction (GST-MAGE-A11 and FAM-PCF11_4) (Homo sapiens, UniProt P43364)
T1 construct: GST-MAGE-A11 MHD (human MAGE-A11 MHD amino acid 218-429); made in house; host or cells: E. coli BL21(DE3)
T1 sequence (P43364 218-429): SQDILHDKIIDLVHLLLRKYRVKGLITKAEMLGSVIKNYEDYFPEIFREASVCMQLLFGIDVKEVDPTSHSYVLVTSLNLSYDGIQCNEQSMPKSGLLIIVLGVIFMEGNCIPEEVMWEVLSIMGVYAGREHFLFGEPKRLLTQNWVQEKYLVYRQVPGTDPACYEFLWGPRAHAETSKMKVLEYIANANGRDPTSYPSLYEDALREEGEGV
Assay: TR-FRET primary / single point screen at 15 µM
Format: binding
In short: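 Single-point screen at 15 µM final compound in 50 mM Tris pH 7.5, 20 mM MgCl2, 0.1 mg/ml BSA, 1 mM DTT, with 200 nM FAM-PCF11_4, 5 nM Tb-anti-GST and 5 nM GST-MAGE-A11. After 90 min at room temperature, the 520/490 nm TR-FRET ratio (340 nm excitation) gave %Inhibition against no-MAGE-A11 and DMSO controls.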

[1] = single point TR-FRET screening of quinoline compounds against MAGE-A11:PCF11, 15 µM
[2] = single point TR-FRET screening of 797 quinoline compounds against MAGE-A11:PCF11

SMILES	percent inhibition (TR-FRET) [1]	percent inhibition (TR-FRET) [2]
CN1CCN(c2c(S(=O)(=O)c3ccccc3)cnc3ccc(Cl)cc23)CC1 [SJ000083950]		-5.3743
COc1ccc(F)cc1CN(CCCCNc1ccnc2cc(Cl)ccc12)Cc1ccccc1 [SJ000357496]		20.7772
COc1ccc2nc3cc(Cl)ccc3c(NCCCNCC3CCCCC3)c2c1 [SJ000361090]		-411.15
CC(CCN(CCCNc1ccnc2cc(Cl)ccc12)Cc1ccccc1)c1ccccc1 (stereo not shown) [SJ000311184]	17.3464	
CC(C)CCc1ccc2c(NCCCNCc3ccco3)ccnc2c1 [SJ000311246]	13.0054	
O=S(=O)(c1ccc(Cl)cc1)N1CCN(c2ccnc3cc(Cl)ccc23)CC1 [SJ000204656]		-34.3905
CCOC(=O)c1cnc2ccc(C)cc2c1NCCN1CCOCC1 [SJ000027268]		-0.3915
CCCN(CCCNc1ccnc2cc(Cl)ccc12)Cc1ccc(C)o1 [SJ000357437]	20.147	
COc1ccc(F)cc1CN1CCC(Nc2ccnc3cc(Cl)ccc23)CC1 [SJ000357493]		6.1527
CCCN(CCCNc1ccnc2cc(Cl)ccc12)Cc1sccc1C [SJ000357439]	19.7269	
CN(C)CCNc1c2c(nc3ccccc13)CCC2 [SJ000013622]		3.285
COC(=O)CCCCCNCCCNc1ccnc2cc(Cl)ccc12 [SJ000521021]	39.1213	
O=S(=O)(c1ccccc1)c1cnc2ccc(F)cc2c1N1CCN(c2ccc(F)cc2)CC1 [SJ000083980]		-11.08
Clc1ccc2c(NC3CCN(Cc4ccc(Cl)o4)CC3)ccnc2c1 [SJ000311180]		0.6827
CCCN(CCCNc1ccnc2cc(Cl)ccc12)CCc1ccccc1 [SJ000357574]	4.8836	
CCOC(=O)c1cnc2c(OC)cccc2c1NCCCN1CCOCC1 [SJ000180455]	3.635	
COc1cccc(Oc2ccc3c(NCCCNCc4ccco4)ccnc3c2)c1 [SJ000311214]	29.109	
CCN(CC)CC(=O)Nc1c2c(nc3ccccc13)CCCC2 [SJ000019523]		2.741

SMILES	percent inhibition (TR-FRET) [1]	percent inhibition (TR-FRET) [2]
CCOC(=O)c1cnc2c(C)cccc2c1NCCCN1CCOCC1 [SJ000279636]	3.353	
CCN1CCN(c2c(C(=O)c3ccccc3)cnc3ccc(OC)cc23)CC1 [SJ000247365]		-0.2733
CN1CCN(c2c(S(=O)(=O)c3ccccc3)cnc3ccc(F)cc23)CC1 [SJ000083949]		-11.5001
CCCN(CCCCNc1ccnc2cc(Cl)ccc12)CCCSC [SJ000311197]		3.903
CCOc1ccc2ncc(S(=O)(=O)c3ccc(OC)cc3)c(N3CCN(CC)CC3)c2c1 [SJ000083971]		-6.389
CCOC(=O)c1cnc2ccc(C(=O)OC)cc2c1NCCCN1CCOCC1 [SJ000279665]	10.7073	
CCCN(CCCCNc1ccnc2cc(Cl)ccc12)Cc1sccc1C [SJ000311199]		6.494
CCN(CC)CCCC(C)Nc1ccnc2cc(Cl)ccc12 (stereo not shown) [SJ000285185]		-2.592
CC(C)(C)c1ccc(Oc2ccc3c(NCCCNCc4ccco4)ccnc3c2)cc1 [SJ000311234]	57.5354	
FC(F)(F)c1ccc2c(NCCCNCC3CC3)ccnc2c1 [SJ000361108]	22.8076	
Clc1ccc2c(NCCCN(Cc3ccccc3)Cc3cccs3)ccnc2c1 [SJ000312672]	4.744	
FC(F)(F)c1cccc(Cc2ccc3c(NCCCNCc4ccco4)ccnc3c2)c1 [SJ000311298]	27.0086	
c1coc(CNCCCNc2ccnc3cc(-c4ccc5c(c4)OCO5)ccc23)c1 [SJ000311290]	30.7894	
COc1ccc(N2CCN(c3c(S(=O)(=O)c4ccccc4)cnc4ccc(C)cc34)CC2)cc1 [SJ000083981]		-37.966
CCOC(=O)c1cnc2ccc(OCC)cc2c1NCCN(C)C [SJ000027288]		10.6575
O=S(=O)(c1ccc(F)cc1)N1CCN(c2ccnc3cc(Cl)ccc23)CC1 [SJ000203833]		-50.6426
COc1ccc(N2CCN(c3c(S(=O)(=O)c4ccccc4)cnc4ccc(OC)cc34)CC2)cc1 [SJ000117071]		-32.6681

Further lines, results first:

percent inhibition (TR-FRET) [1]	percent inhibition (TR-FRET) [2]	SMILES
-94.5429		CCCN(CCCNc1c2ccc(Cl)cc2nc2ccc(OC)cc12)Cc1cccc(C#N)c1 [SJ000522739]
	18.3966	Clc1ccc2c(NCCNCC[C@H]3CC[C@]4(CC3)OO[C@]3(O4)C4CC5CC(C4)CC3C5)ccnc2c1 [SJ000578381]
22.9132		CCC(CC)CN(CCCNc1ccnc2cc(Cl)ccc12)Cc1ccccc1 [SJ000361172]
14.4336		FC(F)(F)c1ccc2c(NCCCNCc3nc4ccccc4s3)ccnc2c1 [SJ000521062]
39.4714		CCCN(CCCNc1c2ccc(Cl)cc2nc2ccc(OC)cc12)Cc1ccc2[nH]ccc2c1 [SJ000522732]
4.762		COc1ccc(F)c(CN(CCCNc2ccnc3cc(Cl)ccc23)Cc2ccccc2)c1 [SJ000520445]
	-165.325	COc1ccc2nc3cc(Cl)ccc3c(NCCCNCc3ccco3)c2c1 [SJ000523032]
-23.4028		CCCN(CCCNc1c2ccc(Cl)cc2nc2ccc(OC)cc12)Cc1cccnc1 [SJ000575152]
7.404		CCCN(CCCNc1ccnc2cc(C(F)(F)F)ccc12)Cc1nc2ccccc2s1 [SJ000520484]
-90.1278		CCCN(CCCNc1c2ccc(Cl)cc2nc2ccc(OC)cc12)Cc1cccc(F)c1 [SJ000520945]
-37.4059		CCCN(CCCCCC(=O)OC)CCCNc1c2ccc(Cl)cc2nc2ccc(OC)cc12 [SJ000575151]
	29.2961	CCCCCCN1CCC(Nc2ccnc3cc(Cl)ccc23)CC1 [SJ000523108]
27.4843		FC(F)(F)c1ccc2c(NCCCNCc3cc4ccccc4o3)ccnc2c1 [SJ000521057]
52.9917		Clc1ccc2c(NCCCNCc3ccc[nH]3)ccnc2c1 [SJ000575192]
	23.5778	CCCCCCN(CCCCNc1ccnc2cc(Cl)ccc12)Cc1ccccc1 [SJ000361212]
14.4523		Cc1ccc(CNCCCNc2ccnc3cc(C(F)(F)F)ccc23)o1 [SJ000361109]
	-252.354	COc1ccc2nc3cc(Cl)ccc3c(NCCCNCc3cn(C)c4ccccc34)c2c1 [SJ000520987]
29.109		Cn1cc(CNCCCNc2ccnc3cc(C(F)(F)F)ccc23)c2ccccc21 [SJ000521043]
	27.8155	Clc1ccc2c(NCCCCN(CCCc3ccccc3)Cc3ccccc3)ccnc2c1 [SJ000522729]

percent inhibition (TR-FRET) [1]	percent inhibition (TR-FRET) [2]	SMILES
30.3991		CCCN(CCCNc1ccnc2cc(Cl)ccc12)Cc1cc(C(F)(F)F)ccc1OC [SJ000523012]
25.2582		CCCN(CCCNc1ccnc2cc(C(F)(F)F)ccc12)Cc1cc(OC)ccc1O [SJ000361263]
15.1623		CCCN(CCCNc1ccnc2cc(C(F)(F)F)ccc12)Cc1ccccn1 [SJ000361252]
15.4935		CCCN(CCCNc1ccnc2cc(C(F)(F)F)ccc12)Cc1cccc(OC)c1O [SJ000361260]
	3.1492	COc1cccc(CN2CCC(Nc3ccnc4cc(Cl)ccc34)CC2)c1 [SJ000523107]
5.6		CCCN(CCCCCC(=O)OC)CCCNc1ccnc2cc(C(F)(F)F)ccc12 [SJ000575191]
	-354.997	COc1ccc(F)c(CNCCCNc2c3ccc(Cl)cc3nc3ccc(OC)cc23)c1 [SJ000520998]
	20.7772	Fc1ccccc1CN(CCCCNc1ccnc2cc(Cl)ccc12)Cc1ccccc1 [SJ000361198]
6.351		CCCN(CCCNc1ccnc2cc(Cl)ccc12)Cc1nccn1C [SJ000523002]
	-153.702	CCCCCCN(CCC)CCCNc1c2ccc(Cl)cc2nc2ccc(OC)cc12 [SJ000520963]
	-14.3502	Cn1cc(CN(CCCCNc2ccnc3cc(Cl)ccc23)Cc2ccccc2)c2ccccc21 [SJ000520440]
-38.0341		CCCN(CCCNc1ccnc2cc(Cl)ccc12)Cc1ccccc1C(F)(F)F [SJ000522745]
	-271.121	CCCN(CCCNc1c2ccc(Cl)cc2nc2ccc(OC)cc12)Cc1ccccc1OC [SJ000520950]
15.746		CCCN(CCCNc1ccnc2cc(C(F)(F)F)ccc12)Cc1cc(F)ccc1OC [SJ000520475]
4.323		CCCN(CCCNc1ccnc2cc(C(F)(F)F)ccc12)Cc1cncc(Br)c1 [SJ000521007]
6.074		Clc1ccc2c(NCCCN(CCCc3ccccc3)Cc3ccccc3)ccnc2c1 [SJ000361185]
	-233.73	CCCN(CCCNc1c2ccc(Cl)cc2nc2ccc(OC)cc12)CCC(C)(C)C [SJ000522983]
	-97.8295	COc1ccc2nc3cc(Cl)ccc3c(NCCCNCc3ccc(Cl)cc3Cl)c2c1 [SJ000522958]
	18.6767	Cc1ccc(C)c(CN2CCC(Nc3ccnc4cc(Cl)ccc34)CC2)c1 [SJ000523106]
